From patent publication US10828515B2, “Compositions containing phenolic compounds having synergistic antioxidant benefits” (L'OREAL, priority 2016, dated 2020) come the findings set out here.

A short description of this assay: oxygen radical absorbance capacity assay (ORAC). The class given is biochemical. The following applies: individual antioxidant compounds.
Description: Synergism was determined by comparing the antioxidant capacities of combinations of components measured by oxygen radical absorbance capacity assay (ORAC) with expected or additive values of the individual compounds. As reflected in the Examples below, the expected ORAC is the combined (additive) antioxidant capacity of each individual antioxidant compound in the association, measured individually and assuming that each is functioning independently. The expected ORAC value of a certain association can be calculated by using the following equation: ORAC (total)=sum of ORAC (compound n, individually) multiplied by the Percentage (compound n, of use in a cosmetic composition), n=1, 2, 3 . . . .
The ORAC assay measures the oxidative degradation of the fluorescent probe (fluorescein) after being mixed with free radical generators such as azo-initiator compounds (2,2′-Azobis(2-amidinopropane)dihydrochloride, AAPH). Azo-initiators are considered to produce the peroxyl radical by heating, which damages the fluorescent molecule, resulting in the loss of fluorescence. Antioxidants are considered to protect the fluorescent molecule from the oxidative degeneration. By quantifying the decay of fluorescence using a fluorometer, the degree of protection is determined comparing with a standard control antioxidant Trolox. The result is expressed in μMol equivalent of Trolox.
`OC[C@H]1O[C@@H](Oc2cc(O)cc(/C=C/c3ccc(O)cc3)c2)[C@H](O)[C@@H](O)[C@@H]1O` [Polydatin] had an ORAC of 20159 μmolTolox/g.

For `Cc1c(C)c2c(c(C)c1O)CCC(C)(C(=O)O)O2` (stereo not drawn) [Trolox (VitE), Trolox], the ORAC was 1000 μmolTolox/g.

The compound `O=C(O)[C@H]1O[C@@H](Oc2cc3oc(-c4ccccc4)cc(=O)c3c(O)c2O)[C@H](O)[C@@H](O)[C@@H]1O` [baicalin] returned an ORAC of 4759 μmolTolox/g.
